Source: patent publication US11214803B2, “Modulators of YAP1 expression” (Ionis Pharmaceuticals, Inc., priority 2019, dated 2022)
Strand notation (5' to 3'): a small letter for the sugar, then the base; units joined by * are phosphorothioate-linked, units joined directly phosphodiester-linked; [ ] holds rarer units or linkages, { } end groups; capitals alone tell only the bases. e = 2'-O-(2-methoxyethyl) (MOE); k = constrained ethyl (cEt); [5mC] = 5-methylcytosine; d = 2'-deoxy (DNA); m = 2'-O-methyl

How the values were obtained:
Yap1 mRNA [1] = assay: Dose-dependent inhibition of human Yap1 in SNU-449 cells (Example 9, RTS36584); format: cell-based; settings: free uptake; for % UTC (Yap1 mRNA): approximately 48 hours; for IC50: linear regression on a log/linear plot
Outline: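 SNU-449 cells (10,000/well) took up modified oligonucleotides by free uptake at a range of doses for about 48 h. Yap1 mRNA was quantified with primer-probe set RTS36584, normalised to RIBOGREEN total RNA and expressed as % untreated control; IC50 from linear regression on log/linear plot.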

Yap1 mRNA [2] = assay: Dose-dependent inhibition of human Yap1 in A-431 cells (Example 8, 10,000 cells per well, RTS4814); format: cell-based; settings: free uptake, approximately 48 hours, RTS4814; for Yap1 mRNA, % UTC: A-431 cells, 10,000 cells per well
Outline: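 A-431 cells (10,000/well) dosed with modified oligonucleotides by free uptake; Yap1 mRNA measured ~48 h later with primer-probe set RTS4814, normalized to total RNA (RIBOGREEN). Values are % of untreated control; IC50 from linear regression on log/linear plot.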

Substance | % UTC (Yap1 mRNA) (Yap1 mRNA [1]; 31.3 nM) [% UTC] | % UTC (Yap1 mRNA) (Yap1 mRNA [1]; 125.0 nM) [% UTC] | % UTC (Yap1 mRNA) (Yap1 mRNA [1]; 500.0 nM) [% UTC] | % UTC (Yap1 mRNA) (Yap1 mRNA [1]; 2000.00 nM) [% UTC] | IC50 (Yap1 mRNA [1]) [nM] | Yap1 mRNA, % UTC (Yap1 mRNA [2]; 31.3 nM) [% UTC] | Yap1 mRNA, % UTC (Yap1 mRNA [2]; 125.0 nM) [% UTC] | Yap1 mRNA, % UTC (Yap1 mRNA [2]; 500.0 nM) [% UTC] | Yap1 mRNA, % UTC (Yap1 mRNA [2]; 2000.00 nM) [% UTC] | IC50 (Yap1 mRNA [2]; A-431 cells, linear regression on log/linear plot) [nM]
1198286 (kA*kA*kT*dT*dG*dT*d[5mC]*dT*d[5mC]*dA*dT*dG*k[5mC]*e[5mC]*kT*eT; antisense) [compound 1198286] | 64 | 45 | 22 | 8 | 100 | – | – | – | – | –
1198875 (kA*kA*dA*dG*dT*dG*dT*dA*dT*dG*dT*k[5mC]*eA*kG*eA*kA; antisense) [compound 1198875] | 61 | 23 | 4 | 1 | 40 | – | – | – | – | –
1074464 (kT*kT*kA*dG*dA*dG*dT*dA*dT*dG*dT*dG*dG*k[5mC]*kA*kA) [compound 1074464] | 109 | 50 | 19 | 6 | 200 | 25 | 6 | 3 | 3 | < 20
1198610 (kT*kG*kT*dA*dT*dG*dT*d[5mC]*dA*dG*dA*dA*kG*kA*kG*eT; antisense) [compound 1198610] | 69 | 29 | 7 | 2 | 100 | – | – | – | – | –
1198718 (kG*eA*kA*dA*dT*dT*dG*dT*d[5mC]*dT*d[5mC]*dA*eT*eG*k[5mC]*k[5mC]; antisense) [compound 1198718] | 87 | 37 | 14 | 4 | 100 | – | – | – | – | –
1198406 (kG*d[5mC]*dT*dT*dT*dG*dG*dA*dA*dG*dA*kT*e[5mC]*kT*eG*kA; antisense) [compound 1198406] | 70 | 57 | 31 | 16 | 200 | – | – | – | – | –
1198470 (kT*kA*dT*dT*dA*dG*dA*dG*dT*dA*dT*eG*kT*eG*kG*e[5mC]; antisense) [compound 1198470] | 73 | 41 | 18 | 9 | 100 | – | – | – | – | –
1198424 (k[5mC]*dT*d[5mC]*dT*dT*dA*dT*dA*dT*dG*dG*kT*eT*kT*eT*kG; antisense) [compound 1198424] | 64 | 44 | 24 | 9 | 100 | – | – | – | – | –
1198578 (GCTTTGGAAGATCTGA; modified gapmer, chemistry not fully specified) [compound 1198578] | 73 | 45 | 25 | 12 | 100 | – | – | – | – | –
1200785 (kA*kT*kT*dG*dT*mC*dT*d[5mC]*dA*dT*dG*d[5mC]*d[5mC]*kT*kT*kA; antisense) [compound 1200785] | 98 | 73 | 42 | 24 | 400 | – | – | – | – | –
1198611 (kA*kG*kT*dG*dT*dA*dT*dG*dT*d[5mC]*dA*dG*kA*kA*kG*eA; antisense) [compound 1198611] | 37 | 19 | 4 | 1 | < 30 | – | – | – | – | –
